In patent US20260015357A1, “MODULATORS OF NLRP3 INFLAMMASOME AND RELATED PRODUCTS AND METHODS” (Neumora Therapeutics, Inc., priority 2022, published 2026) one finds IC50 data, which are given here for 44 compounds.

A word on the IC50: it is the point on the concentration scale where inhibition reaches its midpoint. Low readings indicate greater potency in that assay, high ones weaker potency in that assay.

Assay [1] deals with T1, NLRP3 inflammasome (Homo sapiens, UniProt Q96P20).
T1 construct: host or cells: THP1 human acute monocytic leukemia cells, PMA-differentiated, LPS-primed
T1 sequence (Q96P20 whole entry): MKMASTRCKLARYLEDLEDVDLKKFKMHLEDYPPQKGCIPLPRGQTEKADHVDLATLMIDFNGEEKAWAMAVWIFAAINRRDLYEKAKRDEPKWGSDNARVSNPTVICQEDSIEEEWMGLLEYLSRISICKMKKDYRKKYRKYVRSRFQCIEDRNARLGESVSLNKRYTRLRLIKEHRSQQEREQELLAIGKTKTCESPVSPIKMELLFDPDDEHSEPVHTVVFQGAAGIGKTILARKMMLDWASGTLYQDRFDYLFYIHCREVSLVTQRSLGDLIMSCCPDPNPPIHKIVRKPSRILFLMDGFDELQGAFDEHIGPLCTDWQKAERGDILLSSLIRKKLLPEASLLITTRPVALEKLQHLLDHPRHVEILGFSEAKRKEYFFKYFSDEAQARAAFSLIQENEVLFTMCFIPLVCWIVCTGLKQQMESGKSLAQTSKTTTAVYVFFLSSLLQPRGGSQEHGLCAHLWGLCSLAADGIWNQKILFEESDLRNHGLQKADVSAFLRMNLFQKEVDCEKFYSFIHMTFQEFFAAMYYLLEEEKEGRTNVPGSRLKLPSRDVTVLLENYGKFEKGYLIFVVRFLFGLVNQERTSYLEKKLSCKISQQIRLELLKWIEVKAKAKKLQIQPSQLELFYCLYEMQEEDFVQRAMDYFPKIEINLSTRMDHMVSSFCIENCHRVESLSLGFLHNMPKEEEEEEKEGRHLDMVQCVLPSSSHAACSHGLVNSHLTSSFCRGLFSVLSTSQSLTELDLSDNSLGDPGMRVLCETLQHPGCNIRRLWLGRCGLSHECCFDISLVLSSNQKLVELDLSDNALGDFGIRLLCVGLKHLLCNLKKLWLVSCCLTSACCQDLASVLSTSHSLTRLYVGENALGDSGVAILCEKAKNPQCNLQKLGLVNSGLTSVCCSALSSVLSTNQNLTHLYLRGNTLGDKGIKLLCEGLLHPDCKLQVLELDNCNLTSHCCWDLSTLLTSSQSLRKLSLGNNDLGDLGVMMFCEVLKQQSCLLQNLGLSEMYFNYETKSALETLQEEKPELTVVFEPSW
Kind of assay: NLRP3 inflammasome activation in LPS-primed, nigericin-activated THP1 macrophages, IL-1β AlphaLISA. It counts as cell-based. The note with it: PMA-differentiated, 1 hr compound, Nigericin 6.7 uM 3 hrs, IL-1β in supernatant. On the procedure:
(§1) NLRP3 Inflammasome Activation and Cell Viability Assessment in THP1 Macrophages
(§2) THP1—Human acute monocytic leukemia cells were cultured (ATCC, cat #TIB-202) in Gibco RPMI-1640 medium (ThermoFisher cat #72400054) supplemented with 10% Heat Inactivated FBS at density between 3-8×10^5 viable cells/mi. The cells were then subcultured when the cell concentration reached 8×10^5 cells/mL (every 2-3 days).
(§3) The parameter wells were filled with 50 ul PBS and incubated at 37° C., 5% CO2 for 48 hrs.
(§4) After 48 hrs incubation, the PMA containing media was removed, and changed for 40 ul/well of fresh DMEM, 10% FBS, 1× GlutaMax and incubated at 37° C., 5% CO2 for 24 hrs.
(§5) The following day the cells were primed with LPS (E. coli) (Sigma, cat #L3129) […] in DMEM, 10% FBS, 1× GlutaMax for 3 hrs at 37° C., 5% CO2.
(§6) Following the LPS priming step, the cells were treated with compounds at 10 uM top final concentration, 1:4 dilution, 8 times: (10 uM, 2.5 uM, 0.625 uM, 0.156 uM, 0.039 uM, 0.0097 uM, 0.0024 uM, 0.0006 uM). DMSO was used as a vehicle control, and MCC950 (InvivoGen, cat #inh-mcc) was used at 1 uM as a positive control, and incubated for 1 hrs at 37° C., 5% CO2.
(§7) Following the 1 hr compound incubation, the NLRP3 inflammasome activation step was conducted by treating cells with Nigericin (InvivoGen, cat #tlrl-nig) at 6.7 uM final concentration for 3 hrs at 37° C., 5% CO2.
(§8) Thereafter, 30 ul samples of cells' supernatants were collected for cytokine analysis which was conducted on Hu IL-1β AlphaLISA (Perkin Elmer, cat #AL220C) and Hu IL-6 AlphaLISA (Perkin Elmer, cat #AL220C). The cells' viability was assessed by performing CellTiter-Glo Luminescent Assay (Promega, cat #G7572) according to the manufacturer's protocol.

In assay [2] the test system is IL-6. Kind of assay: IL-6 in supernatants of LPS-primed, nigericin-treated THP1 macrophages, Hu IL-6 AlphaLISA. It counts as cell-based. The note with it: Homo sapiens, THP-1, PMA-differentiated, 1 hr compound, Nigericin 6.7 uM 3 hrs, IL-6 in supernatant. The method, then:
as §1, §2, §3, §4, §5, §6, §7, §8
For orientation: Alpha assays give light when donor and acceptor beads are brought close together.

As for `CN1CCC[C@@H](Nc2nnc(-c3ccc(C(F)(F)F)cc3)c3nc[nH]c23)C1` [Compound 20], the IC50 in assay [1] was 500 to 1000 nM; in assay [2], no less than 10000 nM.
Turning to `CN1CCC[C@@H](Nc2nnc(-c3ccc(F)cc3O)c3cc[nH]c23)C1` [Compound 4], the IC50 was less than 10 nM in assay [1] and 5000 to 10000 nM in assay [2].
Turning to `CN1CCC[C@@H](Nc2nnc(-c3ccccc3)c3[nH]ccc23)C1` [Compound 70], in assay [1], the IC50 was no less than 10000 nM.
As to `Cc1cc(C#N)cnc1-c1nnc(N[C@@H]2CCCN(C)C2)c2c1cnn2C` [Compound 139], the IC50 in assay [1] and in assay [2] was no less than 10000 nM throughout.
In the case of `Cn1ccc2c(-c3ccc(C#N)cc3O)nnc(N[C@@H]3CCCN(CCF)C3)c21` [Compound 148], the figures for the IC50 in assay [1] and in assay [2] were 10 to 100 nM and no less than 10000 nM, respectively.
The like results for `Cn1ccc2c(-c3ccc(C(F)(F)F)cc3)nnc(N[C@@H]3CCCN(S(C)(=O)=O)C3)c21` [Compound 159] were, in that order, 1000 to 10000 nM and no less than 10000 nM.
The like results for `CN1CCC[C@@H](Nc2nnc(-c3ccc(C(F)(F)F)cc3)c3cc[nH]c23)C1` (single isomer, unassigned) [Compound 1] were, in that order, less than 10 nM and 1000 to 5000 nM.
The like results for `CN1CCC[C@@H](Oc2nnc(-c3ccc(C(F)(F)F)cc3)c3ccoc23)C1` [Compound 88] were, in that order, 1000 to 10000 nM and no less than 10000 nM.
`Cc1cn(C)c2c(N[C@@H]3CCCN(C)C3)nnc(-c3ccc(C(F)(F)F)cc3)c12` [Compound 97]: the IC50 was 100 to 500 nM in assay [1] and no less than 10000 nM in assay [2].
As for `Cc1c[nH]c2c(N[C@@H]3CCCN(C)C3)nnc(-c3ccc(F)cc3)c12` [Compound 73], the IC50 in assay [1] was 100 to 500 nM; in assay [2], no less than 10000 nM.
Regarding `CN1CCC[C@@H](Nc2nnc(-c3ccc(Cl)cc3)c3[nH]ccc23)C1` [Compound 11], the IC50 is 1000 to 10000 nM in assay [1] and no less than 10000 nM in assay [2].
The compound `CN1CCC[C@@H](Nc2nnc(-c3ncc(C#N)cc3Cl)c3cnn(C)c23)C1` [Compound 140] yielded an IC50 in assay [1] of 1000 to 10000 nM.
Consider `CN1CCC[C@@H](Nc2nnc(-c3ccc(C(F)(F)F)cc3)c3sccc23)C1` [Compound 62], for which the IC50 in assay [1] fell in the range of 10 to 100 nM; in assay [2], 1000 to 5000 nM.
For `CN1CCC[C@@H](Nc2nnc(-c3ccccc3C(F)F)c3[nH]ccc23)C1` [Compound 13], the IC50 in assay [1] and in assay [2] was no less than 10000 nM each time.
`CN1CCC[C@@H](Nc2nnc(-c3ccc(C(F)(F)F)cc3C(F)F)c3ccn(C)c23)C1` [Compound 122] gave an IC50 in assay [1] of less than 10 nM.
With `CN1CCC[C@@H](N(C)c2nnc(-c3ccc(F)cc3O)c3ccoc23)C1` [Compound 107], the IC50 is 100 to 500 nM in assay [1] and no less than 10000 nM in assay [2].
On the same counts, the results for `Cc1cc(C(F)(F)F)ccc1-c1nnc(N[C@@H]2CCCN(C)C2)c2c1ccn2C` [Compound 123] are less than 10 nM and 1000 to 5000 nM.
On the same counts, the results for `CN1CCC[C@@H](Nc2nnc(-c3ccc(C(F)(F)F)cc3)c3ccn(C)c23)C1` [Compound 26] are 10 to 100 nM and 5000 to 10000 nM.
On the same counts, the results for `CN1CCC[C@@H](Nc2nnc(-c3ccc(C(F)(F)F)cc3C(F)F)c3cnn(C)c23)C1` [Compound 119] are 10 to 100 nM and no less than 10000 nM.
Turning to `CN1CCC[C@@H](N(C)c2nnc(-c3ccc(C#N)cc3)c3ccn(C)c23)C1` [Compound 84], the IC50 in assay [1] and in assay [2] was no less than 10000 nM each time.
In the case of `CN1CCC[C@@H](N(C)c2nnc(-c3ccc(C(F)(F)F)cc3)c3ccsc23)C1` [Compound 95], the values for the IC50 in assay [1] and in assay [2] were 500 to 1000 nM and no less than 10000 nM, respectively.
The like results for `CN1CCC[C@@H](Oc2nnc(-c3ccc(C(F)(F)F)cc3)c3cc[nH]c23)C1` [Compound 39] were, in that order, 100 to 500 nM and 5000 to 10000 nM.
On the same counts, the results for `CN1CCC[C@@H](N(C)c2nnc(-c3ccc(C(F)(F)F)cc3)c3ncn(C)c23)C1` [Compound 105] are no less than 10000 nM and no less than 10000 nM.
On the same counts, the results for `CN1CCC[C@@H](Nc2nnc(-c3ncc(C(F)(F)F)cc3Cl)c3ccn(C)c23)C1` [Compound 131] are 10 to 100 nM and no less than 10000 nM.
As to `Cc1cc(C#N)cc(O)c1-c1nnc(N[C@@H]2CCCN(C)C2)c2c1cnn2C` [Compound 115], the results for the IC50 in assay [1] and in assay [2] were less than 10 nM and no less than 10000 nM, respectively.
On the same counts, the results for `CN1CCC[C@@H](Nc2nnc(-c3ccc(C(F)(F)F)cn3)c3cnn(C)c23)C1` [Compound 136] are 100 to 500 nM and 1000 to 5000 nM.
Regarding `CN1CCC[C@@H](N(C)c2nnc(-c3ccc(C(F)(F)F)cc3)c3[nH]ccc23)C1` [Compound 72], the figures for the IC50 in assay [1] and in assay [2] were 1000 to 10000 nM and no less than 10000 nM, respectively.
For `Cc1cc(-c2nnc(N[C@@H]3CCCN(C)C3)c3cc[nH]c23)ccc1C(F)(F)F` [Compound 66], the IC50 in assay [1] and in assay [2] was no less than 10000 nM throughout.
On to `CN1CCC[C@@H](Nc2nnc(-c3ccc(C#N)cc3C(F)F)c3cnn(C)c23)C1` [Compound 117], for which the IC50 is 100 to 500 nM in assay [1] and no less than 10000 nM in assay [2].
The like results for `CN1CCC[C@@H](Nc2nnc(-c3ccc(C(F)(F)F)cn3)c3ccn(C)c23)C1` [Compound 129] were, in that order, 100 to 500 nM and no less than 10000 nM.
In the case of `Cn1ccc2c(-c3ccc(C#N)cc3O)nnc(N[C@@H]3CCCN(C4COC4)C3)c21` [Compound 160], the IC50 in assay [1] was 1000 to 10000 nM; in assay [2] it was no less than 10000 nM.
On to `COc1cc(C)ccc1-c1nnc(N[C@@H]2CCCN(C)C2)c2c1cnn2C` [Compound 167], for which the IC50 in assay [1] is 1000 to 10000 nM; in assay [2] it was no less than 10000 nM.
For `CN1CCC[C@@H](Nc2nnc(-c3ncc(C(F)(F)F)cc3O)c3cnn(C)c23)C1` [Compound 166], the IC50 was 10 to 100 nM in assay [1] and no less than 10000 nM in assay [2].
The like results for `CN1C[C@H](Nc2nnc(-c3ccc(C(F)(F)F)cc3)c3cc[nH]c23)CC(F)(F)C1` [Compound 19] were, in that order, 100 to 500 nM and 5000 to 10000 nM.
With `CN1CCC[C@@H](Nc2nnc(-c3ccc(C(F)(F)F)cc3)c3c2ccn3C)C1` [Compound 69], the IC50 in assay [1] is 10 to 100 nM.
For the compound `Cn1ccc2c(-c3ccc(C#N)cc3O)nnc(N[C@@H]3CCCN(CCN)C3)c21` [Compound 164], the IC50 was 100 to 500 nM in assay [1] and no less than 10000 nM in assay [2].
The like results for `Cn1ccc2c(-c3ccc(C#N)cc3O)nnc(N[C@@H]3CCCN(c4ccccc4)C3)c21` [Compound 161] were, in that order, no less than 10000 nM and no less than 10000 nM.
In assay [1], `N#Cc1ccc(-c2nnc(N[C@@H]3CCCN(CCF)C3)c3sncc23)c(O)c1` [Compound 150] returned an IC50 of 10 to 100 nM.
As to `Cc1cc(C#N)ccc1-c1nnc(N[C@@H]2CCCN(C)C2)c2c1ccn2C` [Compound 125], the IC50 in assay [1] fell in the range of 10 to 100 nM.
For the compound `CN1CCC[C@@H](Nc2nnc(-c3ncc(C#N)cc3O)c3ccn(C)c23)C1` [Compound 135], in assay [1], the IC50 is no less than 10000 nM.
Still for that read-out and setting: as for `CN1CCC[C@@H](Nc2nnc(-c3ccccc3O)c3cc[nH]c23)C1` [Compound 14], the figure is less than 10 nM; as for `CN1CCC[C@@H](Nc2nnc(-c3ccc(C#N)cc3C(F)F)c3ccn(C)c23)C1` [Compound 120], 100 to 500 nM.
`CN1CCC[C@@H](Nc2nnc(-c3ccccc3)c3cc[nH]c23)C1` [Compound 15] had an IC50 in assay [1] of 500 to 1000 nM.
On the same count and under the same terms, as for `CN1CCC[C@@H](Nc2nnc(-c3ncc(C#N)cc3O)c3cnn(C)c23)C1` [Compound 114], the figure is 10 to 100 nM.
